Assay results taken from BindingDB's records for doi:10.1002/cmdc.200500008 (Philipps-Universität Marburg, 2006).

Columns and labels:
Cathepsin D = Cathepsin D (Homo sapiens, UniProt P07339); test: Enzymatic Assay; settings: pH 5.5
Gag-Pol polyprotein = Gag-Pol polyprotein (Human immunodeficiency virus type 1 group M subtype B (isolate BRU/LAI), UniProt P03367); test: Enzymatic Assay; settings: pH 5.5
Description: Binding constants for inhibition of HIV protease were determined as previously described.

Cathepsin D, sequence (P07339 65-162 limits assumed): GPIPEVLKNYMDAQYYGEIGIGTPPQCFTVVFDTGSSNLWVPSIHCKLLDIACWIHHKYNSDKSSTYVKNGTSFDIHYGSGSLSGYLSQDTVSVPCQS
Cathepsin D, sequence (P07339 169-412 limits assumed): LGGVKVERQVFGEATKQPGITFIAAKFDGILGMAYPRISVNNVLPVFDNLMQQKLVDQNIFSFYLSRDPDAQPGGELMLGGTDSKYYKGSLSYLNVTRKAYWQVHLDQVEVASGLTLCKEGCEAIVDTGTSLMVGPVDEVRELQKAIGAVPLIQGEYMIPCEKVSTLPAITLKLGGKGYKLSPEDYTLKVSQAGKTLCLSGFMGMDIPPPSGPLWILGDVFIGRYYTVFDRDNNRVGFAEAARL

## Cc1cccc(C)c1OCC(=O)N(Cc1ccccc1)CC1CNC[C@H]1CN(CC(C)C)S(=O)(=O)c1ccc(N)cc1 (stereo not given in full) [Aspartyl protease inhibitor, 14]
Cathepsin D
  IC50: > 40 µM
Gag-Pol polyprotein
  IC50: 3.3 µM

## Cc1cccc(C)c1OCC(=O)N(Cc1ccccc1)CC1CNC[C@H]1CN(CC(C)C)S(=O)(=O)c1ccccc1 (stereo not given in full) [Aspartyl protease inhibitor, 13]
Cathepsin D
  IC50: > 40 µM
Gag-Pol polyprotein
  IC50: 2.2 µM

## COc1cc(Br)c(OC(=O)N(Cc2ccccc2)CC2CNC[C@H]2CN(CCc2ccc(Cl)cc2Cl)C(=O)CCCc2ccccc2)cc1OC (stereo not given in full) [Aspartyl protease inhibitor, 16]
Cathepsin D
  IC50: 1.05 µM
Gag-Pol polyprotein
  IC50: 19.8 µM

## Cc1ccc(S(=O)(=O)N(CC(C)C)C[C@@H]2CNCC2CN(Cc2ccccc2)C(=O)COc2c(C)cccc2C)cc1 (stereo not given in full) [Aspartyl protease inhibitor, 15]
Cathepsin D
  IC50: > 40 µM
Gag-Pol polyprotein
  IC50: 12.1 µM

## COc1cc(Br)c(OC(=O)N(Cc2ccccc2)CC2CNC[C@H]2CN(CCc2ccc(Cl)cc2Cl)C(=O)CCN2C(=O)c3ccccc3C2=O)cc1OC (stereo not given in full) [Aspartyl protease inhibitor, 17]
Cathepsin D
  IC50: 0.57 µM
Gag-Pol polyprotein
  IC50: 22.1 µM
